Reference: patent publication US10130670B2, “Composition for treating or preventing inflammatory skin disease, comprising, as active ingredient, immature citrus fruit extract, or synephrine or salt thereof” (BIO SPERCTRUM, INC., priority 2013, dated 2018)

Key:
eotaxin-1 [1] = assay: extracellular secretion of eotaxin-1 by ELISA in IL-4 treated fibroblast; type: cell-based, human; settings: 10, 100 and 200 μM synephrine; 50 ng/ml IL-4; 24 hours; NIH/3T3
Experimental: Human normal fibroblast (human normal fibroblast, NIH/3T3, department of dermatology in Aju University) was inoculated into 24-well microplate with DMEM media so as to be about 2×10^5 cells per well, and cultured in 5% concentration of CO2 cultivator under the condition of 37° C. for 24 hours. And then, it was treated with 1, 10, 100 ppm of unripe Citrus unshiu fruit extract, or 10, 100 and 200 μM of synephrine, respectively and then was treated simultaneously with 50 ng/ml of interleukin-4 (R&D, Minneapolis Minn., IL-4), cultivated for 24 hours to collect cell culture media. And then, the degree of secretion of eotaxin-1 was determined by using ELISA kit. The results are represented in FIG. 2.

eotaxin-1 [2] = assay: eotaxin-1 reporter gene (luciferase) promoter activity in IL-4 treated fibroblast; type: cell-based; settings: 10, 100 and 200 μM synephrine; 50 ng/ml IL-4; 24 hours; NIH/3T3
Experimental: Human normal fibroblast (human normal fibroblast, NIH/3T3, department of dermatology in Aju University) was transformed by inserting Eotaxin-1 reporter gene into it with superfect (Quigen Co.), and then cultured in 5% concentration of CO2 cultivator under the condition of 37° C. for 24 hours. And then, the transformed fibroblast was inoculated into 24-well microplate with DMEM media so as to be about 2×10^5 cells per well, and treated with 1, 10, 100 ppm of unripe Citrus unshiu fruit extract, or 10, 100 and 200 μM of synephrine, respectively and then was treated simultaneously with 50 ng/ml of interleukin-4 (R&D, Minneapolis Minn., IL-4) known to induce eotaxin-1, cultivated for 24 hours to collect cells. Then, the collected cells were crushed and reacted with a substrate of luciferase to determine luminescence, and a promoter activity of eotaxin-1 was determined. The results are represented in FIG. 1.

[3] = test system: children of atopy patients; assay: effect for improving atopy of cream, EASI score; type: in vivo, human; settings: for EASI score (5 = no improvement, 0 = many improvements): cream 0.03 or 0.01% by weight, twice per day, 30 children
Experimental: Creams comprising the unripe Citrus unshiu fruit extract or synephrine isolated from it, having the ingredients and contents shown in below Table 2 were prepared. Specifically, aqueous phase, the purified water, triethanolamine and propylene glycol were heated to 70° C. to dissolve them, and then to it added the liquid in which oil phase, fatty acid, oily component, emulsifier and preservative were heated to 70° C. to dissolve them and stirred with homomixer (Tokushu Kika Ltd., Japan) to emulsify them. After the emulsifying them was completed, the said solution was cooled to 45° C., 0.03% by weight or 0.01% by weight of the unripe Citrus unshiu fruit extract or synephrine based on the total weight of the composition was added, dispersed and then cooled to 30° C.
Cream comprising 0.03 or 0.01% by weight of the unripe Citrus unshiu fruit extract or synephrine isolated from it, prepared according to the method of 10-1 as above was used for 30 children of atopy patients twice per day for 4 weeks. The control used the cream comprising the purified water instead of the unripe Citrus unshiu fruit extract or synephrine.
The effect improving atopy was determined by using Eczema Area Severity Index (EASI) score, the determination criterion was set as 5 for the case that there is no improvement of atopy, and 0 for the case that there are many improvements of atopy and the relative values were compared.

eotaxin-1 mRNA = eotaxin-1 mRNA expression by quantitative Real-time PCR in IL-4 treated fibroblast; type: cell-based, human; settings: 10, 100 and 200 μM synephrine; 50 ng/ml IL-4; 24 hours; NIH/3T3
Experimental: Human normal fibroblast (human normal fibroblast, NIH/3T3, department of dermatology in Aju University) was inoculated into 24-well microplate with DMEM media to be about 2×10^5 cell per well, and cultured in 5% concentration of CO2 cultivator under 37° C. for 24 hours. And then, it was treated with 1, 10, 100 ppm of unripe Citrus unshiu fruit extract, or 10, 100 and 200 μM of synephrine, respectively and then was treated simultaneously with 50 ng/ml of interleukin-4 (R&D, Minneapolis Minn., IL-4), cultivated for 24 hours to collect cell culture media. After extracting tRNA from the collected cells, a complementary DNA (cDNA) was synthesized based on the extracted tRNA and then, a quantitative Real-time PCR was performed by using the synthesized complementary DNA as a template to determine the degree of expression for mRNA of eotaxin-1. The results are represented in FIG. 3.

STAT6 [4] = assay: STAT6 phosphorylation by Western blot in IL-4 treated fibroblast; type: cell-based, human; settings: 10, 100, 200 ppm synephrine for 60 minutes, then 50 ng/ml IL-4 for 20 minutes; NIH/3T3
Experimental: Human normal fibroblast (human normal fibroblast, NIH/3T3, department of dermatology in Aju University) was inoculated into 24-well microplate with DMEM media so as to be about 2×10^5 cells per well, and cultured in 5% concentration of CO2 cultivator under the condition of 37° C. for 24 hours. And then, it was treated with 10, 100, 200 ppm of synephrine for 60 minutes, respectively and then 50 ng/ml of IL-4 was treated to cultivate for 20 minutes. Then, the cells were collected to dissolve and then determine the degree of phosphorylation inhibition of STAT6 through Western blot. The results are represented in FIG. 3.

eosinophil = eosinophil transmigration in co-cultivation with IL-4 treated fibroblast; type: cell-based; settings: 10, 100 and 200 μM synephrine; 50 ng/ml IL-4; 24 hours
Experimental: Human normal fibroblast (human normal fibroblast, NIH/3T3, department of dermatology in Aju University) was inoculated into 24-well co-cultivation plate with DMEM media so as to be about 2×10^5 cells per well, and cultured in 5% concentration of CO2 cultivator under the condition of 37° C. for 24 hours. And then, it was treated with 10, 100 and 200 μM of synephrine for 60 minutes, respectively and then 50 ng/ml of IL-4 was treated to induce the expression of eotaxin-1. Simultaneously, eosinophil was inoculated and cultivated for 24 hours. After the cultivation, the transmigration degree of eosinophil moved through the membrane to bottom of the plate was determined. The determination was measured via a fluorescence staining by using CytoSelect™ 24-Well Cell Migration Assay kit (Cell biolabs, INC., USA). The results are represented in FIG. 6.

human skin = assay: accumulated patch test for safety to the human skin; type: in vivo; settings: for Mean reaction degree: 30 adults, 9 patches, less than 3 = safe
Experimental: In order to identify as to whether the unripe Citrus unshiu fruit extract or synephrine isolated from the unripe Citrus unshiu fruit is safe or not, the skin external preparation based on squalene wherein 1, 10 and 100 ppm of the unripe Citrus unshiu fruit extract prepared in Example 1 were added, was prepared, and the skin external preparation wherein 10, 150 and 300 ppm of synephrine of Example 2 were added, were prepared, respectively.
Then, the skin external preparations were applied as a patch to areas of humerus of 30 adults for accumulated 24 hours on alternate day in total 9 times to test as to whether synephrine stimulates the skin. The control used the skin external preparation based on squalene wherein the unripe Citrus unshiu fruit extract or synephrine was not comprised.
The patch used Finn chamber (Epitest Ltd, Filand) and the patch was practiced after dropping with 15 μl of the skin external preparations prepared from the above, respectively. The degree of the reaction represented on the skin in every time was scored by using the below experimental formula 1. Mean reaction degree=[{(reaction index×reaction degree)/(total number of the subject×the highest score (four point))}×100]/times of the test [Experimental Formula 1]
At this time, in the reaction degree, ± represents 1 score (point), + represents 2 score and ++ represents 4 score,
When the mean reaction degree is less than 3, it is considered as being the safe composition.

STAT6 [5] = assay: translocation of STAT6 into the nucleus, confocal microscopy; type: cell-based; settings: 200 μM synephrine for 60 minutes, then 50 ng/ml IL-4 for 24 hours; NIH/3T3
Experimental: Human normal fibroblast (human normal fibroblast, NIH/3T3, department of dermatology in Aju University) was inoculated into 24-well microplate with DMEM media so as to be about 2×10^5 cells per well, and cultured in 5% concentration of CO2 cultivator under the condition of 37° C. for 24 hours. And then, it was treated with 200 μM of synephrine for 60 minutes, respectively and then was treated with 50 ng/ml of IL-4 to cultivate for 24 hours. And then, the cells was immobilized with paraformaldehyde (PFA) and treated with the primary antibody specifically reacting with STAT6. […] The results are represented in FIG. 5.

## CNCC(O)c1ccc(O)cc1 (stereo not drawn) [synephrine, 4-[1-hydroxy-2-(methylamino)ethyl]phenol]
eotaxin-1 [1]
  extracellular secretion of eotaxin-1 derived by IL-4: reduced
eotaxin-1 [2]
  promoter activity of eotaxin-1 derived by IL-4: reduced
[3]; 1st week
  EASI score (5 = no improvement, 0 = many improvements): 2.82
[3]; 2nd week
  EASI score (5 = no improvement, 0 = many improvements): 1.51
[3]; 4th week
  EASI score (5 = no improvement, 0 = many improvements): 0.63
[3]; cream used for 4 weeks
  EASI score compared to the control: reduced compared to the control
eotaxin-1 mRNA
  expression of mRNA of eotaxin-1 derived by IL-4: reduced
STAT6 [4]
  phosphorylation of STAT6 derived by IL-4: effectively inhibits
eosinophil
  movement of eosinophil derived by eotaxin-1 expressed from the treatment of IL-4: inhibits
Human skin; 10, 150 and 300 ppm, all test groups, all 9 patches
  skin reaction in the patch test: did not represent the skin reaction
Human skin; 10 ppm in squalene-based skin external preparation
  Mean reaction degree: 0.00
Human skin; 150 ppm in squalene-based skin external preparation
  Mean reaction degree: 0.00
Human skin; 300 ppm in squalene-based skin external preparation
  Mean reaction degree: 0.00
Human skin; all tested concentrations, mean reaction degree less than 3 = safe
  safety to the human skin, judged from mean reaction degree: safe material
STAT6 [5]
  translocation of STAT6 derived by IL-4 into the nucleus: inhibits
